Reference: patent US4771062A, “Diaryl sulphide derivatives” (Bayer Aktiengesellschaft, priority 1986, dated 1988)
Counter-ions that a name gives are not always drawn.

biological target: T1, lipoxygenase activity of PMN (Rattus norvegicus, UniProt P12527); assay: LTB4 formed after stimulation with Ca-ionophor, determined by reversed phase HPLC, as a measure of the lipoxygenase activity of PMN; assay type: cell-based, rats; settings: LTB4 formation, Ca-ionophor stimulated rat PMN
T1 construct: lipoxygenase activity of PMN in rats; endogenous in cells; host or cells: rat PMN (polymorphonuclear leucocytes)
T1 sequence (P12527 1-673): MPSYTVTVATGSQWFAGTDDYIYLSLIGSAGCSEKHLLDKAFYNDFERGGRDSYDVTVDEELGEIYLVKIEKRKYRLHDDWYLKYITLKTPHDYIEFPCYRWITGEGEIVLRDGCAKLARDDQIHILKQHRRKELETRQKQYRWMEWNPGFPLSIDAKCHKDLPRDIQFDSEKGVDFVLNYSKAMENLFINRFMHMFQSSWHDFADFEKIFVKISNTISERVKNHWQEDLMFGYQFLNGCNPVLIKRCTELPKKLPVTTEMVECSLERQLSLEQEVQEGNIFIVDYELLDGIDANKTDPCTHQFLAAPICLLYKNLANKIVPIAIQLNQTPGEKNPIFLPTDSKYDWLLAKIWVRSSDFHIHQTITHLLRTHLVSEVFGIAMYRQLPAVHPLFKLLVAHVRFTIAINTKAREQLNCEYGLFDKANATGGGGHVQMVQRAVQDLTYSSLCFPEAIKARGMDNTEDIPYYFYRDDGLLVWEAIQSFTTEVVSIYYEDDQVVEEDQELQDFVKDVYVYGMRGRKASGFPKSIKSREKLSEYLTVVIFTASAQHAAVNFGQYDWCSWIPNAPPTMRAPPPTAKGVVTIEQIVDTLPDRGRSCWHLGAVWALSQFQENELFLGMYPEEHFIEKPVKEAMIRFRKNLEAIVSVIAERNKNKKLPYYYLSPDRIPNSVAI
Procedure: The pharmacological action of the substances according to the invention was determined by the following method:
The leucotriene B4 (LTB4) formed after stimulation with Ca-ionophor is determined by means of reversed phase HPLC in accordance with the method of Borgeat et al. Proc. Natl. Acad. Sci. USA, 76, 215 (1982) as a measure of the lipoxygenase activity of PMN in rats.

| Compound | IC50 [nM] |
| --- | --- |
| CN1CCSC1=Nc1ccc(Sc2ccc(N=C3SCCN3C)cc2)cc1 [Example 17, Bis[4-(3-methyl-thiazolidin-2-imino)phenyl]sulphide] | 265 |
| Cc1ccc(S(=O)(=O)Nc2ccc(Sc3ccc(NC4=NCCS4)cc3)cc2)cc1 [Example 29, 4-(Δ^2 -Thiazolin-2-yl)amino-4'-tosylaminodiphenyl sulphide] | 145 |
| COC(=O)Cc1cc(NC2=NCCS2)ccc1Sc1ccccc1 [Example 10, Methyl[2-phenylthio-5-(Δ^2-thiazolin-2-yl)amino]phenylacetate] | 209 |
| c1cc(Sc2ccc(NC3=NCCS3)cc2)ccc1NC1=NCCS1 [Example 3, Bis[4-(Δ^2-thiazolin-2-yl)aminophenyl]sulphide HCl salt] | 776 |
| c1cc(Sc2ccc(NC3=NCCS3)cc2)ccc1NC1=NCCS1 [Example 2, Bis[4-(Δ^2-thiazolin-2-yl)aminophenyl]sulphide] | 349 |
| c1ccc(C2CSC(Nc3ccc(Sc4ccc(NC5=NC(c6ccccc6)CS5)cc4)cc3)=N2)cc1 (stereo not drawn) [Example 4, Bis[4-(4-phenyl-Δ^2-thiazolin-2-yl)aminophenyl]sulphide] | 501 |
| c1ccc(Sc2ccc(NC3=NCCS3)cc2)cc1 [Example 12] | 97.8 |
| CC1CN=C(Nc2ccc(Sc3ccc(NC4=NCC(C)S4)cc3)cc2)S1 (stereo not drawn) [Example 22, Bis[4-(5-methyl-Δ^2-thiazolin-2-yl)aminophenyl]sulphide] | 123 |

system: not listed separately; assay: appearance of the isolated salt in air (hygroscopicity); assay type: physicochemical; settings: after lyophilization
Procedure: 3 g of bis[4-(Δ^2 -thiazolin-2-yl)aminophenyl]sulphide are taken up in 0.6 ml of 1N HCl and 10 ml of H2 O and the mixture is lyophilized.

| Compound | hygroscopicity |
| --- | --- |
| c1cc(Sc2ccc(NC3=NCCS3)cc2)ccc1NC1=NCCS1 [Example 3, Bis[4-(Δ^2-thiazolin-2-yl)aminophenyl]sulphide HCl salt] | Hygroscopic crystals which deliquesce in air |
